Test results: patent EP0341527A2, “Agent for increasing animal growth” (HOECHST AKTIENGESELLSCHAFT, priority 1988, dated 1989)

What was measured:
männlichen Ratten = test: Feeding trial in male rats (growth, feed intake, feed conversion); assay type: in vivo; details: for Futterverwertung (g Futter/g Gewichtszunahme) relativ zur Kontrollgruppe in % / mittlere Futterverwertung relativ zur Kontrollgruppe in %: lower number = better feed conversion; for mittlere Futterverwertung relativ zur Kontrollgruppe in %: mean over 5-40 ppm Forskolin; for Futteraufnahme (g/d) / Futteraufnahme relativ zur Kontrolle / Gewicht (g) am Ende / Gewichtszunahme relativ zur Kontrolle (%): 28 d
Description: In einem Fütterungsversuch mit 60 männlichen Ratten im Gewichtsabschnitt von 40 bis 170 g Lebendmasse wurde die Wirkung von 5, 10, 20 und 40 ppm Forskolin im Futter bei zwei verschiedenen Proteingehalten der Diäten (15 und 20 Gew.-% für eine suboptimale bzw. optimale Versorgung) auf das Wachstum, die Futteraufnahme und die Futterverwertung im Vergleich zum Futter ohne Gehalt an Forskolin untersucht. Die Diäten (Zusammensetzung siehe Tabelle 1) waren mit 16,6 und 16,8 kJ/g Trockensubstanz isokalorisch. Jeweils sechs Tiere wurden mit Futter gleichen Gehalts an Forskolin und Protein gefüttert und die Resultate für die Auswertung ermittelt. Die jeweiligen sechs Tiere wurden zu je zweien in Makrolonkäfigen in einer Klimakammer bei konstant 25°C und 65 % relativer Luftfeuchte 28 Tage lang gehalten.

[1] = system: Männliche Lohmann-Masthähnchen; test: Feeding trial in broilers (growth, feed intake, feed conversion); assay type: in vivo, Broilern; details: for Futteraufnahme (g/d) / Futteraufnahme, prozentualer Wert relativ zur Kontrollgruppe / Gewicht (Masse) am Ende, prozentualer Wert relativ zur Kontrollgruppe / Massezunahme, prozentualer Wert relativ zur Kontrollgruppe / Futterverwertung, prozentualer Wert relativ zur Kontrollgruppe / Gewicht (Masse) (g) am Ende / Massezunahme (g/d) / Futterverwertung g Futter/g Zunahme: 22 wt% protein; for Futterverwertung, prozentualer Wert relativ zur Kontrollgruppe / Futterverwertung g Futter/g Zunahme: lower = better; for Gewicht (Masse) (g) am Ende / Massezunahme (g/d) / Futterverwertung g Futter/g Zunahme: mean ± spread
Experimental: Männliche Lohmann-Masthähnchen mit einer Lebendmasse zwischen 35 und 45 g wurden in Gruppen von jeweils 20 Tieren pro Behandlung (100 cm²/Tier) auf einer Einstreu aus Hobelspänen bei 24-stündiger Beleuchtung und einer Temperatur von 36 ± 1°C bis zum 21. Versuchstag und 26 ± 1°C vom 22. bis zum 35. Versuchstag gehalten. Das Futter wurde ad libitum angeboten. Die Zusammensetzung des Futters (ohne Wirkstoff) ist in Tabelle 5 angegeben. Der Proteingehalt betrug 22 Gew.-% (entsprechend dem Bedarf). Forskolin wurde als Wurzelmehl über eine Glucose-Vormischung in die Ration eingebracht. Tabelle 5

[2] = 15 wt% crude protein diet, 5 ppm Forskolin in feed
[3] = 15 wt% crude protein diet, 10 ppm Forskolin in feed
[4] = 15 wt% crude protein diet, 20 ppm Forskolin in feed
[5] = 15 wt% crude protein diet, 40 ppm Forskolin in feed
[6] = 20 wt% crude protein diet, 5 ppm Forskolin in feed
[7] = 20 wt% crude protein diet, 10 ppm Forskolin in feed
[8] = 20 wt% crude protein diet, 20 ppm Forskolin in feed
[9] = 20 wt% crude protein diet, 40 ppm Forskolin in feed
[10] = 2 ppm Forskolin in feed (as root meal)
[11] = 4 ppm Forskolin in feed (as root meal)
[12] = 8 ppm Forskolin in feed (as root meal)
[13] = 16 ppm Forskolin in feed (as root meal)
[14] = 32 ppm Forskolin in feed (as root meal)
[15] = broilers, 'up to', 2-32 ppm Forskolin in feed

C=C[C@@]1(C)CC(=O)[C@]2(O)[C@@]3(C)[C@@H](O)CCC(C)(C)[C@@H]3[C@H](O)[C@H](OC(C)=O)[C@@]2(C)O1 [Forskolin]
Zuwachs (männlichen Ratten; 15 % protein, 5 ppm Forskolin): ca. 91 g
Futterverwertung (g Futter/g Gewichtszunahme) relativ zur Kontrollgruppe in % (männlichen Ratten; 15 % protein, 5 ppm Forskolin): 107,7%
Zuwachs (männlichen Ratten; 15 % protein, 10 ppm Forskolin): ~115 g
Futterverwertung (g Futter/g Gewichtszunahme) relativ zur Kontrollgruppe in % (männlichen Ratten; 15 % protein, 10 ppm Forskolin): 100,8%
Zuwachs (männlichen Ratten; 15 % protein, 20 ppm Forskolin): ~122 g
Futterverwertung (g Futter/g Gewichtszunahme) relativ zur Kontrollgruppe in % (männlichen Ratten; 15 % protein, 20 ppm Forskolin): 97,3%
Futterverwertung (g Futter/g Gewichtszunahme) relativ zur Kontrollgruppe in % (männlichen Ratten; 15 % protein, 40 ppm Forskolin): 109,3%
mittlere Futterverwertung relativ zur Kontrollgruppe in % (männlichen Ratten; 15 % protein): 103,7%
gesteigerte Zunahme an Lebendmasse im Vergleich zur entsprechenden Kontrollgruppe (männlichen Ratten; 15 and 20 wt% protein, up to 20 ppm Forskolin, within 28 days, 'up to'): ≤ 39%
Gewichtszunahme (g/28 d) (männlichen Ratten; [2]): 90,9 g/28 d
Futteraufnahme (g/d) (männlichen Ratten; [2]): 9,07 g/d
Futteraufnahme relativ zur Kontrolle (männlichen Ratten; [2]): 111,9
Gewicht (g) am Ende (männlichen Ratten; [2]): 131,3 g
Gewichtszunahme relativ zur Kontrolle (%) (männlichen Ratten; [2]): 103,6%
Gewichtszunahme (g/28 d) (männlichen Ratten; [3]): 115,1 g/28 d
Futteraufnahme (g/d) (männlichen Ratten; [3]): 10,70 g/d
Futteraufnahme relativ zur Kontrolle (männlichen Ratten; [3]): 132,2
Gewicht (g) am Ende (männlichen Ratten; [3]): 156,0 g
Gewichtszunahme relativ zur Kontrolle (%) (männlichen Ratten; [3]): 131,2%
Gewichtszunahme (g/28 d) (männlichen Ratten; [4]): 122,0 g/28 d
Futteraufnahme (g/d) (männlichen Ratten; [4]): 11,00 g/d
Futteraufnahme relativ zur Kontrolle (männlichen Ratten; [4]): 135,7
Gewicht (g) am Ende (männlichen Ratten; [4]): 162,6 g
Gewichtszunahme relativ zur Kontrolle (%) (männlichen Ratten; [4]): 139,1%
Gewichtszunahme (g/28 d) (männlichen Ratten; [5]): 81,8 g/28 d
Futteraufnahme (g/d) (männlichen Ratten; [5]): 8,26 g/d
Futteraufnahme relativ zur Kontrolle (männlichen Ratten; [5]): 101,8
Gewicht (g) am Ende (männlichen Ratten; [5]): 122,3 g
Gewichtszunahme relativ zur Kontrolle (%) (männlichen Ratten; [5]): 93,3%
Futterverwertung erhöht (männlichen Ratten; 20 % protein content, 'up to about', refers to mean feed conversion of Table 4): ≤ 8%
Futterverwertung (g Futter/g Gewichtszunahme) relativ zur Kontrollgruppe in % (männlichen Ratten; 20 % protein, 5 ppm Forskolin): 92,4%
Zuwachs (männlichen Ratten; 20 % protein, 10 ppm Forskolin): ~113 g
Futterverwertung (g Futter/g Gewichtszunahme) relativ zur Kontrollgruppe in % (männlichen Ratten; 20 % protein, 10 ppm Forskolin): 93,8%
Zuwachs (männlichen Ratten; 20 % protein, 20 ppm Forskolin): ~121 g
Futterverwertung (g Futter/g Gewichtszunahme) relativ zur Kontrollgruppe in % (männlichen Ratten; 20 % protein, 20 ppm Forskolin): 90,5%
Futterverwertung (g Futter/g Gewichtszunahme) relativ zur Kontrollgruppe in % (männlichen Ratten; 20 % protein, 40 ppm Forskolin): 92,0%
mittlere Futterverwertung relativ zur Kontrollgruppe in % (männlichen Ratten; 20 % protein): 92,2%
Gewichtszunahme (g/28 d) (männlichen Ratten; [6]): 117,6 g/28 d
Futteraufnahme (g/d) (männlichen Ratten; [6]): 10,70 g/d
Futteraufnahme relativ zur Kontrolle (männlichen Ratten; [6]): 115,7
Gewicht (g) am Ende (männlichen Ratten; [6]): 157,7 g
Gewichtszunahme relativ zur Kontrolle (%) (männlichen Ratten; [6]): 124,4%
Gewichtszunahme (g/28 d) (männlichen Ratten; [7]): 112,9 g/28 d
Futteraufnahme (g/d) (männlichen Ratten; [7]): 10,40 g/d
Futteraufnahme relativ zur Kontrolle (männlichen Ratten; [7]): 112,4
Gewicht (g) am Ende (männlichen Ratten; [7]): 153,2 g
Gewichtszunahme relativ zur Kontrolle (%) (männlichen Ratten; [7]): 119,9%
Gewichtszunahme (g/28 d) (männlichen Ratten; [8]): 120,5 g/28 d
Futteraufnahme (g/d) (männlichen Ratten; [8]): 10,70 g/d
Futteraufnahme relativ zur Kontrolle (männlichen Ratten; [8]): 115,7
Gewicht (g) am Ende (männlichen Ratten; [8]): 161,9 g
Gewichtszunahme relativ zur Kontrolle (%) (männlichen Ratten; [8]): 127,9%
Gewichtszunahme (g/28 d) (männlichen Ratten; [9]): 103,1 g/28 d
Futteraufnahme (g/d) (männlichen Ratten; [9]): 9,31 g/d
Futteraufnahme relativ zur Kontrolle (männlichen Ratten; [9]): 100,6
Gewicht (g) am Ende (männlichen Ratten; [9]): 143,0 g
Gewichtszunahme relativ zur Kontrolle (%) (männlichen Ratten; [9]): 109,4%
Futteraufnahme (g/d) [1, 10]: 88,4 g/d
Futteraufnahme, prozentualer Wert relativ zur Kontrollgruppe [1, 10]: 104,0%
Gewicht (Masse) am Ende, prozentualer Wert relativ zur Kontrollgruppe [1, 10]: 108,5%
Massezunahme, prozentualer Wert relativ zur Kontrollgruppe [1, 10]: 109,0%
Futterverwertung, prozentualer Wert relativ zur Kontrollgruppe [1, 10]: 94,6%
Gewicht (Masse) (g) am Ende [1, 10]: 1715,2±196,2 g
Massezunahme (g/d) [1, 10]: 45,4±5,4 g/d
Futterverwertung g Futter/g Zunahme [1, 10]: 1,97±0,24 g Futter/g Zunahme
Futteraufnahme (g/d) [1, 11]: 86,2 g/d
Futteraufnahme, prozentualer Wert relativ zur Kontrollgruppe [1, 11]: 101,6%
Gewicht (Masse) am Ende, prozentualer Wert relativ zur Kontrollgruppe [1, 11]: 106,4%
Massezunahme, prozentualer Wert relativ zur Kontrollgruppe [1, 11]: 106,0%
Futterverwertung, prozentualer Wert relativ zur Kontrollgruppe [1, 11]: 95,7%
Gewicht (Masse) (g) am Ende [1, 11]: 1682,5±253,7 g
Massezunahme (g/d) [1, 11]: 44,4±6,9 g/d
Futterverwertung g Futter/g Zunahme [1, 11]: 1,99±0,38 g Futter/g Zunahme
Futteraufnahme (g/d) [1, 12]: 83,8 g/d
Futteraufnahme, prozentualer Wert relativ zur Kontrollgruppe [1, 12]: 98,7%
Gewicht (Masse) am Ende, prozentualer Wert relativ zur Kontrollgruppe [1, 12]: 103,9%
Massezunahme, prozentualer Wert relativ zur Kontrollgruppe [1, 12]: 104,3%
Futterverwertung, prozentualer Wert relativ zur Kontrollgruppe [1, 12]: 93,8%
Gewicht (Masse) (g) am Ende [1, 12]: 1643,0±192,3 g
Massezunahme (g/d) [1, 12]: 43,5±5,3 g/d
Futterverwertung g Futter/g Zunahme [1, 12]: 1,95±0,24 g Futter/g Zunahme
Futteraufnahme (g/d) [1, 13]: 86,7 g/d
Futteraufnahme, prozentualer Wert relativ zur Kontrollgruppe [1, 13]: 102,0%
Gewicht (Masse) am Ende, prozentualer Wert relativ zur Kontrollgruppe [1, 13]: 103,1%
Massezunahme, prozentualer Wert relativ zur Kontrollgruppe [1, 13]: 103,4%
Futterverwertung, prozentualer Wert relativ zur Kontrollgruppe [1, 13]: 97,9%
Gewicht (Masse) (g) am Ende [1, 13]: 1629,5±242,4 g
Massezunahme (g/d) [1, 13]: 43,1±6,6 g/d
Futterverwertung g Futter/g Zunahme [1, 13]: 2,04±0,33 g Futter/g Zunahme
Futteraufnahme (g/d) [1, 14]: 86,4 g/d
Futteraufnahme, prozentualer Wert relativ zur Kontrollgruppe [1, 14]: 101,8%
Gewicht (Masse) am Ende, prozentualer Wert relativ zur Kontrollgruppe [1, 14]: 103,9%
Massezunahme, prozentualer Wert relativ zur Kontrollgruppe [1, 14]: 103,9%
Futterverwertung, prozentualer Wert relativ zur Kontrollgruppe [1, 14]: 97,2%
Gewicht (Masse) (g) am Ende [1, 14]: 1642,7±182,9 g
Massezunahme (g/d) [1, 14]: 43,3±5,0 g/d
Futterverwertung g Futter/g Zunahme [1, 14]: 2,02±0,28 g Futter/g Zunahme
Futterverwertung verbessert [1, 15]: ≤ 7%
Lebendmassezunahme gegenüber der Kontrollgruppe verbessert [1, 15]: ≤ 9%
